{"source": "patent US20120288604A1", "about": "“Organic Compounds” (Givaudan S.A., priority 2009, published 2012)", "key": {"[1]": {"details": "Tsuzuki et al, J. of chemical and engineering data (1971), 16(1), 108-11; cited from earlier work"}, "[2]": {"test_system": "panel of 15 subjects all of whom were sweet sensitive", "experiment": "Comparative sensory ranking of sucrose solutions against 7% sucrose + para-ethoxy benzonitrile (R-index analysis)", "type": "in vivo", "experimental": "The test samples (“Test”) contained 7% sucrose and 20 ppm of para-ethoxy benzonitrile in water. The test samples were compared with control samples containing 7, 8, 9, and 10% sucrose in water. The sensory evaluations were conducted as follows. All samples were presented at ambient temperature in 15 ml aliquots at random to a panel of 15 subjects all of whom were sweet sensitive of varying sensitivity. After tasting each sample, the mouth was rinsed thoroughly with water at ambient temperature prior to tasting the next sample. The tastings were carried out in two replications in one session. Panelists were asked to rank the solutions whilst wearing nose plugs. They were asked to rank from least sweet to most sweet.\n(§1) The data were subjected to an R-Index analysis. […] An R-index from 50% to the critical value means the sweetness enhancer sample has an equivalent sweetness to the compared sucrose sample."}, "[3]": {"test_system": "panel of 15 subjects all of whom were sweet sensitive", "experiment": "Sensory ranking to find the sucrose concentration iso-intense to aqueous para-ethoxy benzonitrile (R-index analysis)", "type": "in vivo", "experimental": "The test samples contained para-ethoxy benzonitrile in water. The control samples were aqueous solutions of sucrose at 0.5%, 1.0%, 1.5% and 2.0%. The sensory evaluations were conducted as follows. All samples were presented at ambient temperature in 15 ml aliquots at random to a panel of 15 subjects all of whom were sweet sensitive of varying sensitivity. After tasting each sample, panelists rinsed their mouths thoroughly with water at ambient temperature prior to tasting subsequent samples. The tastings were carried out in two replications in one session. Panelists were asked to rank the solutions whilst wearing nose plugs. They were asked to rank from least sweet to most sweet.\nas §1"}}, "data": [{"smiles": "CCOc1ccc(C#N)cc1", "note": "[ethoxy benzonitrile]", "values": [{"measurement": "taste as described", "setting": "[1]", "result": "sweet or sweetish"}]}, {"smiles": "CCOc1ccc(C#N)cc1", "note": "[para-ethoxy benzonitrile]", "values": [{"measurement": "sweetness enhancement (additive or synergistic)", "setting": "[2]; 20 ppm in 7% sucrose, Examples 1 and 2 taken together", "result": "synergistic effect"}, {"measurement": "iso-sweet sucrose, by interpolation", "setting": "[2]; Test (7% sucrose + 20 ppm in water)", "result": 8.5, "unit": "%"}, {"measurement": "Significantly different (p < 0.05)", "setting": "[2]; Test (7% sucrose + 20 ppm in water) vs. 7% sucrose", "result": "Yes"}, {"measurement": "R-index", "setting": "[2]; Test (7% sucrose + 20 ppm in water) vs. 7% sucrose, critical value 64.61%", "result": 95, "unit": "%"}, {"measurement": "Significantly different (p < 0.05)", "setting": "[2]; Test (7% sucrose + 20 ppm in water) vs. 8% sucrose", "result": "Yes"}, {"measurement": "R-index", "setting": "[2]; Test (7% sucrose + 20 ppm in water) vs. 8% sucrose, critical value 64.61%", "result": 73, "unit": "%"}, {"measurement": "Significantly different (p < 0.05)", "setting": "[2]; Test (7% sucrose + 20 ppm in water) vs. 9% sucrose", "result": "Yes"}, {"measurement": "R-index", "setting": "[2]; Test (7% sucrose + 20 ppm in water) vs. 9% sucrose, critical value 35.39%", "result": 28, "unit": "%"}, {"measurement": "Significantly different (p < 0.05)", "setting": "[2]; Test (7% sucrose + 20 ppm in water) vs. 10% sucrose", "result": "Yes"}, {"measurement": "R-index", "setting": "[2]; Test (7% sucrose + 20 ppm in water) vs. 10% sucrose, critical value 35.39%", "result": 10, "unit": "%"}, {"measurement": "iso-sweet sucrose expected were the effect merely additive", "setting": "[2]; Test (7% sucrose + 20 ppm in water), from the data of Example 1", "result": 7.75, "unit": "%"}, {"measurement": "perceived sweetness relative to sucrose", "setting": "[2]; Test (7% sucrose + 20 ppm) vs. 7 and 8% sucrose solutions", "result": "significantly sweeter"}, {"measurement": "perceived sweetness relative to sucrose", "setting": "[2]; Test (7% sucrose + 20 ppm) vs. 9% and 10% sucrose", "result": "less sweet"}, {"measurement": "Significantly different (p < 0.05)", "setting": "[3]; 10 ppm in water vs. 0.5% sucrose", "result": "No"}, {"measurement": "R-index", "setting": "[3]; 10 ppm in water vs. 0.5% sucrose, critical value 64.61%", "result": 51, "unit": "%"}, {"measurement": "iso sweet sucrose solution", "setting": "[3]; 10 ppm solution in water", "result": 0.5, "unit": "%"}, {"measurement": "Significantly different (p < 0.05)", "setting": "[3]; 20 ppm in water vs. 0.5% sucrose", "result": "Yes"}, {"measurement": "R-index", "setting": "[3]; 20 ppm in water vs. 0.5% sucrose, critical value 64.61%", "result": 81, "unit": "%"}, {"measurement": "Significantly different (p < 0.05)", "setting": "[3]; 20 ppm in water vs. 1.0% sucrose", "result": "Yes"}, {"measurement": "R-index", "setting": "[3]; 20 ppm in water vs. 1.0% sucrose, critical value 35.39%", "result": 30, "unit": "%"}, {"measurement": "iso-sweet sucrose solution, by interpolation", "setting": "[3]; 20 ppm solution in water", "result": 0.75, "unit": "%"}, {"measurement": "perceived sweetness relative to sucrose", "setting": "[3]; 20 ppm solution vs. 0.5% sucrose", "result": "significantly sweeter"}, {"measurement": "perceived sweetness relative to sucrose", "setting": "[3]; 20 ppm solution vs. 1% sucrose", "result": "significantly less sweet"}]}]}
